What was measured:
Assay type in all cases: in vivo
[1] = system: Plutella xylostella; test: Test on insecticidal activity in Plutella xylostella (cabbage leaf dip); conditions: foliar, 144 h, 500 ppm active ingredient (wettable powder diluted with water), cabbage leaves dipped, second-instar larvae, 25° C., 6 days after treatment
Protocol: A wettable powder prepared according to formulation example 2 was diluted with water to a concentration of 500 ppm as the active ingredient. Some cabbage leaves were dipped in the drug solution, air-dried, and then placed in a plastic cup. Ten second-instar larvae of Plutella xylostella were put on the treated leaves, and the cup was covered with a lid. Then, it was placed in a room at constant temperature of 25° C. The number of dead insects was investigated at 6 days after treatment. Mortality rate was calculated using the formula 1. The number of replication was one in each test.

[2] = system: Helicoverpa armigera; test: Test on insecticidal activity in Helicoverpa armigera (cabbage leaf dip); conditions: foliar, 144 h, 500 ppm active ingredient (wettable powder diluted with water), cabbage leaves dipped, hatching larvae, 25° C., 6 days after treatment
Protocol: A wettable powder prepared according to formulation example 2 was diluted with water to a concentration of 500 ppm as the active ingredient. Some cabbage leaves were dipped in the drug solution, air-dried, and then placed in a plastic cup. Five hatching larvae of Helicoverpa armigera were put on the treated leaves, and the cup was covered with a lid. Then, it was placed in a room at constant temperature of 25° C. The number of dead insects was investigated at 6 days after the treatment. Mortality rate was calculated using the formula 1. The number of replication was two in each test.

[3] = system: Nilaparvata lugens; test: Test on insecticidal activity in Nilaparvata lugens (rice sprout dip); conditions: 144 h, 500 ppm active ingredient (wettable powder diluted with water), rice sprouts dipped, second-instar larvae, 25° C., 6 days after treatment
Protocol: A wettable powder prepared according to formulation example 2 was diluted with water to a concentration of 500 ppm as the active ingredient. Some rice sprouts were dipped in the drug solution and placed in a plastic cup. Ten second-instar larvae of Nilaparvata lugens were put on the treated leaves, and the cup was covered with a lid. Then, it was placed in a constant room temperature of 25° C. The number of dead insects was investigated at 6 days after the treatment. Mortality rate was calculated using the formula 1. The number of replication was one in each test.

[4] = system: Aphis gossypii; test: Test on pest control effect in Aphis gossypii (cucumber nursery plant dip); conditions: 72 h, 500 ppm active ingredient (wettable powder diluted with water), cucumber nursery plants inoculated with larvae dipped, 25° C., 3 days after treatment
Protocol: [Test example 4] Test on pest control effect in Aphis gossypii A wettable powder prepared according to formulation example 2 was diluted with water to a concentration of 500 ppm as the active ingredient. Some nursery plant of cucumber previously inoculated with larvae of Aphis gossypii were dipped in the drug solution and air-dried. The treated nursery plants of cucumber were placed in a room at constant temperature of 25° C. The number of surviving insects was counted at 3 days after the treatment. Mortality rate was calculated using the formula 1. The number of replication was one in each test.

Measured: mortality at 500 ppm

CCS(=O)(=O)c1c(-n2cc(OCC(F)(F)C(F)(F)C(F)(F)F)cn2)nc2ccc(C(F)(F)F)cn12 [A-0046, 3-(ethylsulfonyl)-2-[4-(2,2,3,3,4,4,4-heptafluorobutoxy)-1H-pyrazol-1-yl]-6-(trifluoromethyl)imidazo[1,2-a]pyridine]
≥ 90%: all assays above

CCS(=O)(=O)c1c(-n2cc(OCC(F)(F)C(F)(F)C(F)(F)F)cn2)nc2ccc(Br)cn12 [A-0039, 6-bromo-3-(ethylsulfonyl)-2-[4-(2,2,3,3,4,4,4-heptafluorobutoxy)-1H-pyrazol-1-yl] imidazo [1,2-a] pyridine]
≥ 90%: all assays above

CCS(=O)(=O)c1c(-n2cc(OCC(F)(F)C(F)(F)C(F)(F)F)cn2)nc2ccc(C3CC3)cn12 [A-0049, 6-cyclopropyl-3-(ethylsulfonyl)-2-[4-(2,2,3,3,4,4,4-heptafluorobutoxy)-1H-pyrazol-1-yl] imidazo [1,2-a] pyridine]
≥ 90%: all assays above
